The source of these data is BindingDB's records for doi:10.1021/acs.jmedchem.6b01169 (Gilead Sciences, 2016).

The target in this assay is Phosphatidylinositol 3-kinase regulatory subunit alpha/4,5-bisphosphate 3-kinase catalytic subunit delta isoform (Homo sapiens, UniProt P27986+O00329). Briefly: Inhibition of human full length PI3K p110delta/p85alpha using phosphatidylinositol […] as substrate measured after 30 mins by TR-FRET assay.
Chain of Phosphatidylinositol 3-kinase regulatory subunit alpha/4,5-bisphosphate 3-kinase catalytic subunit delta isoform (P27986 whole entry, canonical isoform): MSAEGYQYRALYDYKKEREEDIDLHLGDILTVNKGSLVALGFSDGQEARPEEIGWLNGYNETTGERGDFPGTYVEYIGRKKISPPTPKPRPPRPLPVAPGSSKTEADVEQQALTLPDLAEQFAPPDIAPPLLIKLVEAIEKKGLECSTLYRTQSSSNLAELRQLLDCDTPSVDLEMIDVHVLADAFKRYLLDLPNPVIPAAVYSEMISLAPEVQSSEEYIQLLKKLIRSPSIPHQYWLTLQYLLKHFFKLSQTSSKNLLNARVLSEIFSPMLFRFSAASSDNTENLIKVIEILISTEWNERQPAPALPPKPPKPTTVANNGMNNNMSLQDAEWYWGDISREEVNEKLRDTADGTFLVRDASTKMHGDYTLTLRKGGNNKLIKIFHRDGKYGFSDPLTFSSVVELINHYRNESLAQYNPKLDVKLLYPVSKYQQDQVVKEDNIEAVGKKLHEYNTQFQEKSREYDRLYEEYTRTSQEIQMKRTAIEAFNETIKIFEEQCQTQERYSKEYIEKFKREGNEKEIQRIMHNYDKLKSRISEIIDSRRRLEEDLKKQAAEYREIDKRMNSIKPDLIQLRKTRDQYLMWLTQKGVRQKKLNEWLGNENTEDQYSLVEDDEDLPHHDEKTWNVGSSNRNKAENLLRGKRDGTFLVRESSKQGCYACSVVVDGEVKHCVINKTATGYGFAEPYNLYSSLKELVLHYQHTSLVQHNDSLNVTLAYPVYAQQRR
Chain of Phosphatidylinositol 3-kinase regulatory subunit alpha/4,5-bisphosphate 3-kinase catalytic subunit delta isoform (O00329 whole entry, canonical isoform): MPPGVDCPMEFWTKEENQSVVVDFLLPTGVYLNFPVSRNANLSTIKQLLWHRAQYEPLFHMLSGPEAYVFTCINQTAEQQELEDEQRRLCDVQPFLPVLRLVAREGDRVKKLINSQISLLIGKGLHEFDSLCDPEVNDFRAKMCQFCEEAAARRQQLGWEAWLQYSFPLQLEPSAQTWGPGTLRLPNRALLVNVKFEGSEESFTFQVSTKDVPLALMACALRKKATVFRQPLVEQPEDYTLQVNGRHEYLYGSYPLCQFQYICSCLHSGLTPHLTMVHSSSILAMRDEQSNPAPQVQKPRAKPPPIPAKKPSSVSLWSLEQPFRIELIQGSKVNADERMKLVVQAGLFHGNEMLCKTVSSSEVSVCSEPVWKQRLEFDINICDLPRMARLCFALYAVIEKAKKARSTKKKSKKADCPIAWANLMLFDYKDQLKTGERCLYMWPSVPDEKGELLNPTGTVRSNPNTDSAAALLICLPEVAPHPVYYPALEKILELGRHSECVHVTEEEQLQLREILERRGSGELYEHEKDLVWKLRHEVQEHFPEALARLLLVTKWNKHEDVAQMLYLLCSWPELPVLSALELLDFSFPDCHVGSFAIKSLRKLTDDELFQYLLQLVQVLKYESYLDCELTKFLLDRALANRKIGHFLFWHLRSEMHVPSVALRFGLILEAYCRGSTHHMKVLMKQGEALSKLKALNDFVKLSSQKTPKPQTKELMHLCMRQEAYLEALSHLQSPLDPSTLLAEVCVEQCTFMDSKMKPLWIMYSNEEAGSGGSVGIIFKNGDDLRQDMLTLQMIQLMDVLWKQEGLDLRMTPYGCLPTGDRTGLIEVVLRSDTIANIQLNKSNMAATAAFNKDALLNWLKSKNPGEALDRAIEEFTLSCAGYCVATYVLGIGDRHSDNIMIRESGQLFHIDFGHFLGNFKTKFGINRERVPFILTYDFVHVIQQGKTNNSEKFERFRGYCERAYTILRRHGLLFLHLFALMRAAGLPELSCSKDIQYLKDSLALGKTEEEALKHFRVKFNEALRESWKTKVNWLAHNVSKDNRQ

Molecule `C[C@H](Nc1nc(N)nc(N)c1C#N)c1nc2cccc(Cl)c2c(=O)n1-c1cccnc1` [US9221795, 1] showed an IC50 of 0.6 nM. The result for `C[C@H](Nc1nc(N)nc(N)c1C#N)c1nc2cccc(Cl)c2c(=O)n1-c1cncc(Cl)c1` [US9221795, 13] reads 8 nM. In turn, `COc1cncc(-n2c([C@H](C)Nc3nc(N)nc(N)c3C#N)nc3cccc(Cl)c3c2=O)c1` [US9221795, 14] displayed an IC50 of 4 nM. The result for `C[C@H](Nc1nc(N)nc(N)c1C#N)c1nc2cccc(Cl)c2c(=O)n1-c1cncc(C2CC2)c1` [US9221795, 19] reads 5 nM; that for `C[C@H](Nc1nc(N)nc(N)c1C#N)c1nc2c(Cl)cccc2c(=O)n1-c1cccnc1` [US9221795, 22], 6 nM; that for `C[C@H](Nc1nc(N)nc(N)c1C#N)c1nc2c(F)ccc(Cl)c2c(=O)n1-c1cccnc1` [US9221795, 24], 0.4 nM. Turning to `C[C@H](Nc1nc(N)nc(N)c1C#N)c1nc2c(F)ccc(F)c2c(=O)n1-c1cccnc1` [US9221795, 25], the IC50 is 8 nM.

Consider `Cc1ccncc1-n1c([C@H](C)Nc2nc(N)nc(N)c2C#N)nc2cccc(Cl)c2c1=O` [US9221795, 40], for which the midpoint of inhibition, the IC50, lay at 0.4 nM.
